Results reported in ChEMBL document CHEMBL6153128, “Insights into the Activation Mechanism of HCA1, HCA2, and HCA3” (J Med Chem, 2025).
Active and inactive are the calls of the source. The rule behind the calls is not given here.

Assays:
[1] = biological target: T1, Hydroxycarboxylic acid receptor 1 (Homo sapiens, UniProt Q9BXC0); experiment: Agonist activity at HCA1 (unknown origin); type: functional, cell-based, HEK293
HEK293 [2] = experiment: Agonist activity at HCA2 (1 to 129 residues)/HCA3 (130-)(unknown origin) expressed in HEK293 cells incubated for 90 mins by IP1 accumulation assay; type: cell-based; settings: Homo sapiens
HEK293 [3] = experiment: Agonist activity at HCA3 (1 to 129 residues)/HCA2 (130-)(unknown origin) expressed in HEK293 cells incubated for 90 mins by IP1 accumulation assay; type: cell-based; settings: Homo sapiens
HEK293 [4] = experiment: Agonist activity at HCA3 (1 to 129 residues)/HCA2 (130-) Y86N/S91W mutant (unknown origin) expressed in HEK293 cells incubated for 90 mins by IP1 accumulation assay; type: cell-based; settings: Homo sapiens, filed as agonist
HEK293 [5] = experiment: Agonist activity at HCA3 (1 to 129 residues)/HCA2 (130-) S178I mutant (unknown origin) expressed in HEK293 cells incubated for 90 mins by IP1 accumulation assay; type: cell-based; settings: Homo sapiens, filed as agonist
HEK293 [6] = experiment: Agonist activity at HCA2 (1 to 129 residues)/HCA3 (130-) N86Y/W91S mutant (unknown origin) expressed in HEK293 cells incubated for 90 mins by IP1 accumulation assay; type: cell-based; settings: Homo sapiens
[7] = biological target: T1, Hydroxycarboxylic acid receptor 1; experiment: Agonist activity at CRE-luc-fused HCA1 (unknown origin) expressed in HEK293 cells co-expressing XtremeGENE HP DNA assessed as inhibition of cAMP production preincubated for 30 mins followed by forskolin addition measured after 6 hrs by Bright-Glo Luciferase Assay; type: functional, cell-based; settings: filed as agonist, time 6.5 hrs
[8] = system: Hydroxycarboxylic acid receptor 1 (Homo sapiens), Q9BXC0 [C6A]; experiment: Agonist activity at CRE-luc-fused HCA1 C6A mutant (unknown origin) expressed in HEK293 cells co-expressing XtremeGENE HP DNA assessed as inhibition of cAMP production preincubated for 30 mins followed by forskolin addition measured after 6 hrs by Bright-Glo Luciferase Assay; type: cell-based; settings: time 6.5 hrs
[9] = system: Hydroxycarboxylic acid receptor 1 (Homo sapiens), Q9BXC0 [C7A]; experiment: Agonist activity at CRE-luc-fused HCA1 C7A mutant (unknown origin) expressed in HEK293 cells co-expressing XtremeGENE HP DNA assessed as inhibition of cAMP production preincubated for 30 mins followed by forskolin addition measured after 6 hrs by Bright-Glo Luciferase Assay; type: cell-based; settings: time 6.5 hrs
[10] = system: Hydroxycarboxylic acid receptor 1 (Homo sapiens), Q9BXC0 [C88A]; experiment: Agonist activity at CRE-luc-fused HCA1 C88A mutant (unknown origin) expressed in HEK293 cells co-expressing XtremeGENE HP DNA assessed as inhibition of cAMP production preincubated for 30 mins followed by forskolin addition measured after 6 hrs by Bright-Glo Luciferase Assay; type: cell-based; settings: time 6.5 hrs
[11] = system: Hydroxycarboxylic acid receptor 1 (Homo sapiens), Q9BXC0 [Y74A]; experiment: Agonist activity at CRE-luc-fused HCA1 Y74A mutant (unknown origin) expressed in HEK293 cells co-expressing XtremeGENE HP DNA assessed as inhibition of cAMP production preincubated for 30 mins followed by forskolin addition measured after 6 hrs by Bright-Glo Luciferase Assay; type: cell-based; settings: time 6.5 hrs
[12] = system: Hydroxycarboxylic acid receptor 1 (Homo sapiens), Q9BXC0 [E166A]; experiment: Agonist activity at CRE-luc-fused HCA1 E166A mutant (unknown origin) expressed in HEK293 cells co-expressing XtremeGENE HP DNA assessed as inhibition of cAMP production preincubated for 30 mins followed by forskolin addition measured after 6 hrs by Bright-Glo Luciferase Assay; type: cell-based; settings: time 6.5 hrs
[13] = system: Hydroxycarboxylic acid receptor 1 (Homo sapiens), Q9BXC0 [E166I]; experiment: Agonist activity at CRE-luc-fused HCA1 E166I mutant (unknown origin) expressed in HEK293 cells co-expressing XtremeGENE HP DNA assessed as inhibition of cAMP production preincubated for 30 mins followed by forskolin addition measured after 6 hrs by Bright-Glo Luciferase Assay; type: cell-based; settings: time 6.5 hrs
[14] = system: Hydroxycarboxylic acid receptor 1 (Homo sapiens), Q9BXC0 [R240A]; experiment: Agonist activity at CRE-luc-fused HCA1 R240A mutant (unknown origin) expressed in HEK293 cells co-expressing XtremeGENE HP DNA assessed as inhibition of cAMP production preincubated for 30 mins followed by forskolin addition measured after 6 hrs by Bright-Glo Luciferase Assay; type: cell-based; settings: time 6.5 hrs
[15] = system: Hydroxycarboxylic acid receptor 1 (Homo sapiens), Q9BXC0 [R71A]; experiment: Agonist activity at CRE-luc-fused HCA1 R71A mutant (unknown origin) expressed in HEK293 cells co-expressing XtremeGENE HP DNA assessed as inhibition of cAMP production preincubated for 30 mins followed by forskolin addition measured after 6 hrs by Bright-Glo Luciferase Assay; type: cell-based; settings: time 6.5 hrs
[16] = system: Hydroxycarboxylic acid receptor 1 (Homo sapiens), Q9BXC0 [Y75A]; experiment: Agonist activity at CRE-luc-fused HCA1 Y75A mutant (unknown origin) expressed in HEK293 cells co-expressing XtremeGENE HP DNA assessed as inhibition of cAMP production preincubated for 30 mins followed by forskolin addition measured after 6 hrs by Bright-Glo Luciferase Assay; type: cell-based; settings: time 6.5 hrs
[17] = system: Hydroxycarboxylic acid receptor 1 (Homo sapiens), Q9BXC0 [R99A]; experiment: Agonist activity at CRE-luc-fused HCA1 R99A mutant (unknown origin) expressed in HEK293 cells co-expressing XtremeGENE HP DNA assessed as inhibition of cAMP production preincubated for 30 mins followed by forskolin addition measured after 6 hrs by Bright-Glo Luciferase Assay; type: cell-based; settings: time 6.5 hrs
[18] = system: Hydroxycarboxylic acid receptor 1 (Homo sapiens), Q9BXC0 [H261A]; experiment: Agonist activity at CRE-luc-fused HCA1 H261A mutant (unknown origin) expressed in HEK293 cells co-expressing XtremeGENE HP DNA assessed as inhibition of cAMP production preincubated for 30 mins followed by forskolin addition measured after 6 hrs by Bright-Glo Luciferase Assay; type: cell-based; settings: time 6.5 hrs
[19] = system: Hydroxycarboxylic acid receptor 1 (Homo sapiens), Q9BXC0 [H261F]; experiment: Agonist activity at CRE-luc-fused HCA1 H261F mutant (unknown origin) expressed in HEK293 cells co-expressing XtremeGENE HP DNA assessed as inhibition of cAMP production preincubated for 30 mins followed by forskolin addition measured after 6 hrs by Bright-Glo Luciferase Assay; type: cell-based; settings: time 6.5 hrs
[20] = system: Hydroxycarboxylic acid receptor 1 (Homo sapiens), Q9BXC0 [Y268A]; experiment: Agonist activity at CRE-luc-fused HCA1 Y268A mutant (unknown origin) expressed in HEK293 cells co-expressing XtremeGENE HP DNA assessed as inhibition of cAMP production preincubated for 30 mins followed by forskolin addition measured after 6 hrs by Bright-Glo Luciferase Assay; type: cell-based; settings: time 6.5 hrs
Sequence of Hydroxycarboxylic acid receptor 1 (Homo sapiens), Q9BXC0 [Y268A] (Q9BXC0 whole entry Y268A, the tested form may be a part): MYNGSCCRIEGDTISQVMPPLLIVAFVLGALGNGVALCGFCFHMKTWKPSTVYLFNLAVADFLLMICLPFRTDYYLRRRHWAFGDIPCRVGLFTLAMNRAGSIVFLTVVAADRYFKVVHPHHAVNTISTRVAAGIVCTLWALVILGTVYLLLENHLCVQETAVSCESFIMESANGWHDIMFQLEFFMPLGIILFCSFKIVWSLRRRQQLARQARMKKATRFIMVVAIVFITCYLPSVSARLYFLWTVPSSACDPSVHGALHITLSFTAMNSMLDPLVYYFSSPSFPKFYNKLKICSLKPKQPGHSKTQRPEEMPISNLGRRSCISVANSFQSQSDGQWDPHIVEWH

T1 sequence (Q9BXC0 whole entry, the tested form may be a part): as the sequence (Q9BXC0 whole entry Y268A, the tested form may be a part) above, with A268Y counted along it
Sequence of Hydroxycarboxylic acid receptor 1 (Homo sapiens), Q9BXC0 [E166A] (Q9BXC0 whole entry E166A, the tested form may be a part): as the sequence (Q9BXC0 whole entry Y268A, the tested form may be a part) above, with E166A, A268Y counted along it
Sequence of Hydroxycarboxylic acid receptor 1 (Homo sapiens), Q9BXC0 [R71A] (Q9BXC0 whole entry R71A, the tested form may be a part): as the sequence (Q9BXC0 whole entry Y268A, the tested form may be a part) above, with R71A, A268Y counted along it
Sequence of Hydroxycarboxylic acid receptor 1 (Homo sapiens), Q9BXC0 [H261A] (Q9BXC0 whole entry H261A, the tested form may be a part): as the sequence (Q9BXC0 whole entry Y268A, the tested form may be a part) above, with H261A, A268Y counted along it
Sequence of Hydroxycarboxylic acid receptor 1 (Homo sapiens), Q9BXC0 [R240A] (Q9BXC0 whole entry R240A, the tested form may be a part): as the sequence (Q9BXC0 whole entry Y268A, the tested form may be a part) above, with R240A, A268Y counted along it
Sequence of Hydroxycarboxylic acid receptor 1 (Homo sapiens), Q9BXC0 [C7A] (Q9BXC0 whole entry C7A, the tested form may be a part): as the sequence (Q9BXC0 whole entry Y268A, the tested form may be a part) above, with C7A, A268Y counted along it
Sequence of Hydroxycarboxylic acid receptor 1 (Homo sapiens), Q9BXC0 [H261F] (Q9BXC0 whole entry H261F, the tested form may be a part): as the sequence (Q9BXC0 whole entry Y268A, the tested form may be a part) above, with H261F, A268Y counted along it
Sequence of Hydroxycarboxylic acid receptor 1 (Homo sapiens), Q9BXC0 [C6A] (Q9BXC0 whole entry C6A, the tested form may be a part): as the sequence (Q9BXC0 whole entry Y268A, the tested form may be a part) above, with C6A, A268Y counted along it
Sequence of Hydroxycarboxylic acid receptor 1 (Homo sapiens), Q9BXC0 [R99A] (Q9BXC0 whole entry R79A, the tested form may be a part): as the sequence (Q9BXC0 whole entry Y268A, the tested form may be a part) above, with R79A, A268Y counted along it
Sequence of Hydroxycarboxylic acid receptor 1 (Homo sapiens), Q9BXC0 [Y75A] (Q9BXC0 whole entry Y75A, the tested form may be a part): as the sequence (Q9BXC0 whole entry Y268A, the tested form may be a part) above, with Y75A, A268Y counted along it
Sequence of Hydroxycarboxylic acid receptor 1 (Homo sapiens), Q9BXC0 [C88A] (Q9BXC0 whole entry C88A, the tested form may be a part): as the sequence (Q9BXC0 whole entry Y268A, the tested form may be a part) above, with C88A, A268Y counted along it
Sequence of Hydroxycarboxylic acid receptor 1 (Homo sapiens), Q9BXC0 [Y74A] (Q9BXC0 whole entry Y74A, the tested form may be a part): as the sequence (Q9BXC0 whole entry Y268A, the tested form may be a part) above, with Y74A, A268Y counted along it
Sequence of Hydroxycarboxylic acid receptor 1 (Homo sapiens), Q9BXC0 [E166I] (Q9BXC0 whole entry E166I, the tested form may be a part): as the sequence (Q9BXC0 whole entry Y268A, the tested form may be a part) above, with E166I, A268Y counted along it

`O=C(O)c1cccc(O)c1` [3-HYDROXYBENZOIC ACID] showed an EC50 [1] of roughly 184 µM.

For `CC(C)(Cc1nc(-c2ccc(O)cn2)no1)C(=O)NC1=C(C(=O)O)CCCC1`, the Activity (HEK293 [2]) was “inactive”, the Activity (HEK293 [3]) was “inactive” and the Activity (HEK293 [4]) was “Active”.

With `CCCCCC(O)CC(=O)O` (stereo not given) the Activity (HEK293 [2]) was “inactive”, the Activity (HEK293 [5]) was “Active” and the Activity (HEK293 [6]) was “inactive”.

`CC(O)C(=O)O` (stereo not given) [LACTIC ACID] gave an EC50 [1] of 1000 µM.

For `O=C(O)c1cc(O)cc(Cl)c1`, the EC50 [1] was roughly 16 µM.

`CC1CCC(C(=O)Nc2nc(-c3cccs3)c(CC(=O)N3CCN(C)CC3)s2)CC1` (stereo not given) was tested, and the EC50 [1] was roughly 0.05 µM.

`O=C(O)c1cc(O)cc(O)c1` [3,5-DIHYDROXYBENZOIC ACID] was tested, and the Activity [7] was “Active”, the Activity [8] was “inactive” and the Activity [9] was “inactive”. For the same molecule, the Activity [10] was “inactive”, the Activity [11] was “inactive” and the Activity [12] was “inactive”. The Activity [13] was “inactive”, the Activity [14] was “inactive” and the EC50 [1] was roughly 150 µM. The Activity [15] was “inactive”, the Activity [16] was “inactive” and the Activity [17] was “inactive”. For the same molecule, the Activity [18] was “inactive”, the Activity [19] was “inactive” and the Activity [20] was “inactive”.
